Laboratory results: the NIST ThermoML archive (doi:10.1016/j.jct.2016.08.008)
± gives the expanded uncertainty stated by the source.

Test: activity coefficient (dimensionless); of the first substance listed, at infinite dilution; xn = mol fraction of the nth substance listed
Details: 101.33 kPa, Liquid, Chromatography, x1 = 0

| SMILES | activity coefficient (318.15 K) | activity coefficient (328.15 K) | activity coefficient (338.15 K) | activity coefficient (348.15 K) | activity coefficient (358.15 K) | activity coefficient (368.15 K) |
| --- | --- | --- | --- | --- | --- | --- |
| CCC(C)O (configuration not stated) [butan-2-ol] + CCCCCCCCCCCCn1cc[n+](C)c1.O=S(=O)([N-]S(=O)(=O)C(F)(F)F)C(F)(F)F | 1.29 ± 0.08 | 1.23 ± 0.08 | 1.18 ± 0.08 | 1.13 ± 0.07 | 1.09 ± 0.07 | 1.05 ± 0.07 |
| C1CCCC1 [cyclopentane] + CCCCCCCCCCCCn1cc[n+](C)c1.O=S(=O)([N-]S(=O)(=O)C(F)(F)F)C(F)(F)F | 1.75 ± 0.12 | 1.77 ± 0.12 | 1.8 ± 0.12 | 1.82 ± 0.12 | 1.84 ± 0.12 | 1.86 ± 0.13 |
| CCc1ccccc1 [ethylbenzene] + CCCCCCCCCCCCn1cc[n+](C)c1.O=S(=O)([N-]S(=O)(=O)C(F)(F)F)C(F)(F)F | 0.911 ± 0.058 | 0.951 ± 0.06 | 0.992 ± 0.062 | 1.03 ± 0.06 | 1.07 ± 0.07 | 1.11 ± 0.07 |
| CCC(=O)OC [methyl propanoate] + CCCCCCCCCCCCn1cc[n+](C)c1.O=S(=O)([N-]S(=O)(=O)C(F)(F)F)C(F)(F)F | 0.531 ± 0.039 | 0.557 ± 0.04 | 0.583 ± 0.041 | 0.608 ± 0.043 | 0.634 ± 0.044 | 0.659 ± 0.045 |
| C#CCCCC [1-hexyne] + CCCCCCCCCCCCn1cc[n+](C)c1.O=S(=O)([N-]S(=O)(=O)C(F)(F)F)C(F)(F)F | 1.25 ± 0.08 | 1.3 ± 0.08 | 1.35 ± 0.09 | 1.4 ± 0.09 | 1.45 ± 0.1 | 1.49 ± 0.1 |
| CC#N [acetonitrile] + CCCCCCCCCCCCn1cc[n+](C)c1.O=S(=O)([N-]S(=O)(=O)C(F)(F)F)C(F)(F)F | 0.508 ± 0.038 | 0.515 ± 0.038 | 0.524 ± 0.039 | 0.531 ± 0.039 | 0.539 ± 0.039 | 0.545 ± 0.04 |
| CCCCCC [hexane] + CCCCCCCCCCCCn1cc[n+](C)c1.O=S(=O)([N-]S(=O)(=O)C(F)(F)F)C(F)(F)F | 2.96 ± 0.2 | 3.02 ± 0.21 | 3.09 ± 0.21 | 3.14 ± 0.21 | 3.2 ± 0.22 | 3.26 ± 0.22 |
| C=CCCCC [hex-1-ene] + CCCCCCCCCCCCn1cc[n+](C)c1.O=S(=O)([N-]S(=O)(=O)C(F)(F)F)C(F)(F)F | 2.15 ± 0.15 | 2.2 ± 0.15 | 2.25 ± 0.15 | 2.29 ± 0.16 | 2.34 ± 0.16 | 2.38 ± 0.16 |
| Cc1ccc(C)cc1 [1,4-dimethylbenzene] + CCCCCCCCCCCCn1cc[n+](C)c1.O=S(=O)([N-]S(=O)(=O)C(F)(F)F)C(F)(F)F | 0.869 ± 0.056 | 0.914 ± 0.058 | 0.958 ± 0.06 | 1 ± 0.06 | 1.05 ± 0.07 | 1.09 ± 0.07 |
| CC(C)(C)O [2-methylpropan-2-ol] + CCCCCCCCCCCCn1cc[n+](C)c1.O=S(=O)([N-]S(=O)(=O)C(F)(F)F)C(F)(F)F | 1.12 ± 0.07 | 1.08 ± 0.07 | 1.04 ± 0.07 | 0.998 ± 0.062 | 0.964 ± 0.061 | 0.933 ± 0.059 |
| CCCCCCCCCC [decane] + CCCCCCCCCCCCn1cc[n+](C)c1.O=S(=O)([N-]S(=O)(=O)C(F)(F)F)C(F)(F)F | 5.82 ± 0.4 | 5.88 ± 0.4 | 5.95 ± 0.41 | 6 ± 0.41 | 6.06 ± 0.41 | 6.12 ± 0.42 |
| CCCCCCCCC [nonane] + CCCCCCCCCCCCn1cc[n+](C)c1.O=S(=O)([N-]S(=O)(=O)C(F)(F)F)C(F)(F)F | 4.92 ± 0.34 | 4.97 ± 0.34 | 5.03 ± 0.34 | 5.08 ± 0.35 | 5.13 ± 0.35 | 5.17 ± 0.35 |
| CCCCC [pentane] + CCCCCCCCCCCCn1cc[n+](C)c1.O=S(=O)([N-]S(=O)(=O)C(F)(F)F)C(F)(F)F | 2.55 ± 0.17 | 2.6 ± 0.18 | 2.66 ± 0.18 | 2.71 ± 0.18 | 2.76 ± 0.19 | 2.81 ± 0.19 |
| C1CCCCCCC1 [cyclooctane] + CCCCCCCCCCCCn1cc[n+](C)c1.O=S(=O)([N-]S(=O)(=O)C(F)(F)F)C(F)(F)F | 2.8 ± 0.19 | 2.82 ± 0.19 | 2.83 ± 0.19 | 2.84 ± 0.19 | 2.85 ± 0.19 | 2.86 ± 0.19 |
| CCCO [propan-1-ol] + CCCCCCCCCCCCn1cc[n+](C)c1.O=S(=O)([N-]S(=O)(=O)C(F)(F)F)C(F)(F)F | 1.45 ± 0.1 | 1.36 ± 0.09 | 1.29 ± 0.08 | 1.22 ± 0.08 | 1.16 ± 0.07 | 1.11 ± 0.07 |
| Cc1ccccc1 [toluene] + CCCCCCCCCCCCn1cc[n+](C)c1.O=S(=O)([N-]S(=O)(=O)C(F)(F)F)C(F)(F)F | 0.699 ± 0.047 | 0.732 ± 0.048 | 0.765 ± 0.05 | 0.8 ± 0.052 | 0.832 ± 0.054 | 0.864 ± 0.055 |
| c1ccncc1 [pyridine] + CCCCCCCCCCCCn1cc[n+](C)c1.O=S(=O)([N-]S(=O)(=O)C(F)(F)F)C(F)(F)F | 0.387 ± 0.034 | 0.404 ± 0.034 | 0.42 ± 0.04 | 0.435 ± 0.035 | 0.451 ± 0.036 | 0.466 ± 0.036 |
| CCCOCCC [dipropyl ether] + CCCCCCCCCCCCn1cc[n+](C)c1.O=S(=O)([N-]S(=O)(=O)C(F)(F)F)C(F)(F)F | 1.67 ± 0.11 | 1.73 ± 0.12 | 1.79 ± 0.12 | 1.84 ± 0.12 | 1.89 ± 0.13 | 1.94 ± 0.13 |
| c1ccsc1 [thiophene] + CCCCCCCCCCCCn1cc[n+](C)c1.O=S(=O)([N-]S(=O)(=O)C(F)(F)F)C(F)(F)F | 0.559 ± 0.04 | 0.579 ± 0.041 | 0.6 ± 0.042 | 0.62 ± 0.043 | 0.639 ± 0.044 | 0.658 ± 0.045 |
| CC(C)=O [acetone] + CCCCCCCCCCCCn1cc[n+](C)c1.O=S(=O)([N-]S(=O)(=O)C(F)(F)F)C(F)(F)F | 0.353 ± 0.032 | 0.369 ± 0.033 | 0.386 ± 0.033 | 0.401 ± 0.034 | 0.417 ± 0.035 | 0.432 ± 0.035 |
| CCOCC [diethyl ether] + CCCCCCCCCCCCn1cc[n+](C)c1.O=S(=O)([N-]S(=O)(=O)C(F)(F)F)C(F)(F)F | 0.983 ± 0.062 | 1.03 ± 0.06 | 1.07 ± 0.07 | 1.12 ± 0.07 | 1.16 ± 0.07 | 1.2 ± 0.08 |
| CCC(C)CC [3-methylpentane] + CCCCCCCCCCCCn1cc[n+](C)c1.O=S(=O)([N-]S(=O)(=O)C(F)(F)F)C(F)(F)F | 2.77 ± 0.19 | 2.83 ± 0.19 | 2.89 ± 0.2 | 2.94 ± 0.2 | 2.99 ± 0.2 | 3.04 ± 0.21 |
